Laboratory results: patent EP1840211A1, “Pyranosone dehydratase from phanerochaete chrysosporium” (DANISCO A/S, priority 2001, dated 2003)
Values after ≈ are worked out from the molar mass of the structure shown.

Legend:
[1] = target: T1, pyranosone dehydratase (PD) (Phanerodontia chrysosporium, UniProt P84193); assay: Conversion of AF or glucosone by PD, monitored at 226nm; type: biochemical, Phanerochaete chrysosporium; conditions: for OD226nm: 22°C, 5.5 hours
T1 construct: from tissue; host or cells: Phanerochaete chrysosporium (enzyme purified from the fungus' cell-free extract)
T1 sequence (P84193 8-900 limits assumed): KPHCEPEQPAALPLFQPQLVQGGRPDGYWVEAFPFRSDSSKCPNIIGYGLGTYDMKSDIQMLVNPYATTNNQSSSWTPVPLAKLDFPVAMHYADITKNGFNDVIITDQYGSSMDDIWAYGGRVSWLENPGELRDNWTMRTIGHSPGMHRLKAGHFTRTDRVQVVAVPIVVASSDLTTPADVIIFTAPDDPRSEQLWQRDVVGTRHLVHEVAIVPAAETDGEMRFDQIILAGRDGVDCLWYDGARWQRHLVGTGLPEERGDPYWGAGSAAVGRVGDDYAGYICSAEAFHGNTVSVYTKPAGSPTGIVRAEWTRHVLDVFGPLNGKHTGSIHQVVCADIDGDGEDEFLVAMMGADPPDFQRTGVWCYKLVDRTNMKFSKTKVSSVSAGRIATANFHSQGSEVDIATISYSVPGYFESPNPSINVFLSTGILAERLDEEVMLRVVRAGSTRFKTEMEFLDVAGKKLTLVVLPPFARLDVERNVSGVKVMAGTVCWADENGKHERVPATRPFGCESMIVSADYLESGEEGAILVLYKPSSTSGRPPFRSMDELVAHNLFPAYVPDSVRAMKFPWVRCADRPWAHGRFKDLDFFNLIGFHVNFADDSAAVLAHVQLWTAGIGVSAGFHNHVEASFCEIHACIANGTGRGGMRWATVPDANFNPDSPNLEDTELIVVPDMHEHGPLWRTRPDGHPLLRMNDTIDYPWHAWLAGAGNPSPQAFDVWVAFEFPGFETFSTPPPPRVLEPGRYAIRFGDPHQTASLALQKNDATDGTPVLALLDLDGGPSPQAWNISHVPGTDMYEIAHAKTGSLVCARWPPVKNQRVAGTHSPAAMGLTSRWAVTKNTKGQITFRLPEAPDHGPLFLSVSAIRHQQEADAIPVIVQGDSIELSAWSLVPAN
Experimental: The reaction system consisted of AF or glucosone 1-15µl, 25µl sodium phosphate buffer (6.5. 0.1M), water, 1.4µl PD to a final volume of 200µl. The reaction was performed at 22°C for 5.5 hours. The formation of microthecin from AF and cortalcerone from glucosone were monitorered at 226nm.

[2] = test system: Aphanomyces; assay: Field emergence trial (Trial FEHCP034 Aphanomyces); type: in vivo, sugar beet; conditions: pellets containing the substance, result in words
From the text: Based on these findings, the efficiency of microthecin was further investigated in a field emergence trial. The trial was sown relatively late giving it a higher chance for presence of the pathogen Aphanomyces in the trial field.
Seeds were pelleted with standard P1 pelleting mass with (1,2) or without (7,8)Thiram.
Inner coating: 0,3gai/U microthecin as a 0,5% solution in water or 14,7gai/U Hymexazol. 60gai/U Imidacloprid. Standard metallic green seed cover film.
The following combinations were included in the trial: R F0 Without fungicides R FT With Thiram (in pellet) R FH With Hymexazol R FM With Microthecin R P1 STD With Thiram (in pellet) + Hymexazol R FTM With Thiram (in pellet) + Microthecin Trial place Bukkehave, DK. (4 reps, 200 seeds/plot) Trial sown 21.05.2002 1. Count 28.05.2002 (speed) 2. Count 29.05.2002 (speed) 3. Count 24.06.2002 (final)

[3] = test system: sugar beet seeds; assay: Laboratory germination of pelleted sugar beet seeds; type: in vivo; conditions: result in words
[4] = test system: Cercospora beticola; assay: Agar plate inhibition zone test (PDA medium); type: cell-based; conditions: judged after 3-4 weeks of growth, read-out: minimum inhibition concentration (mic)
Experimental: (§1) A circular plug (diameter 10 mm) of fresh mycelium was placed at the centre on a petri-dish (diameter 9 cm) containing PDA medium. (PDA= Potato dextrose agar Difco no. 213400). Wells with a diameter of 5 mm were cut along the periphery of the agar plate. In each well were placed 50 µl of a test solution. Alternatively, 20 µl of each test solution were placed directly on the agar along the periphery of the plate. Also, 50µl of each test solution were placed directly on top of the fungal mycelium plug.
(§2) The agar plates were placed at room temperature in daylight, but protected from direct sunlight.
(§3) The reaction (inhibition zones) of the fungi to the test substance was judged as follows: Rhizoctonia solani: after 2-3 days of growth Pythium ultimum: after 1-2 days of growth Aphanomyces cochlioides: after 3-4 days of growth Cercospora beticola after 3-4 weeks of growth

[5] = test system: Pythium ultimum; assay: Agar plate inhibition zone test (PDA medium); type: cell-based; conditions: Globisporangium ultimum; judged after 1-2 days of growth; read-out: minimum inhibition concentration (mic)
Experimental: as §1, §2, §3

[6] = test system: Aphanomyces cochlioides; assay: Agar plate inhibition zone test (PDA medium); type: cell-based; conditions: judged after 3-4 days of growth, read-out: minimum inhibition concentration (mic)
Experimental: as §1, §2, §3

[7] = test system: Rhizoctonia solani; assay: Agar plate inhibition zone test (PDA medium); type: cell-based; conditions: judged after 2-3 days of growth, read-out: minimum inhibition concentration (mic)
Experimental: as §1, §2, §3

[8] = test system: Aphanomyces cochlioides; assay: Screening for growth inhibition on agar-plates (Example 4); type: cell-based; conditions: very low concentrations; in wells on PDA-agar plates, 3-5 days
Experimental: The effect of microthecin on the plant pathogenic fungi Pythium ultimum, Rhizoctonia solani and Aphanomyces cochlioides in vitro was investigated by screening for growth inhibition of the pathogens on agar-plates (Figures 6, 7, 8).
(§4) In each case, microthecin was dissolved in water and placed in wells in the periphery. An agar block containing the pathogen was placed in the centre. The pathogens were allowed to grow out on the PDA-agar plates for 3-5 days.

[9] = test system: B. megaterium DS98.124; assay: Similar growth tests with other microorganisms (Example 4); type: cell-based
Experimental: as §4

[10] = test system: B. Pumilus DS96.734; assay: as above; type: cell-based
Experimental: as §4

[11] = test system: Cercospora; assay: as above; type: cell-based
Experimental: as §4

[12] = test system: P. mendocina DS98.124; assay: as above; type: cell-based
Experimental: as §4

[13] = test system: P. fluorescens DS96.578; assay: as above; type: cell-based
Experimental: as §4

[14] = final substrate concentration 13.7 µg/ml reaction mixture
[15] = final substrate concentration 27.4 µg/ml reaction mixture
[16] = final substrate concentration 41.1 µg/ml reaction mixture
[17] = final substrate concentration 68.4 µg/ml reaction mixture
[18] = final substrate concentration 95.8 µg/ml reaction mixture
[19] = final substrate concentration 137 µg/ml reaction mixture
[20] = final substrate concentration 205 µg/ml reaction mixture

Compound | OD226nm [1, 14] | OD226nm [1, 15] | OD226nm [1, 16] | OD226nm [1, 17] | OD226nm [1, 18] | OD226nm [1, 19] | OD226nm [1, 20] | speed of germination [2] | further results
O=C1CO[C@H](CO)[C@@H](O)[C@@H]1O [AF, 1,5-anhydro-D-fructose] | 0.308 | 0.534 | 0.76 | 1.246 | 1.764 | 2.43 | 2.943 |  | Vmax higher with AF than with glucosone ([1]; ratio AF vs glucosone as PD substrate): around 4.7 times
O=CC(=O)[C@@H](O)[C@H](O)[C@H](O)CO [Glucosone, D-arabino-hexos-2-ulose] | 0.069 | 0.104 | 0.141 | 0.238 | 0.323 | 0.484 | 0.634 |  | 
Cc1cc(O)no1 [Hymexazol, reference compound] |  |  |  |  |  |  |  | relatively slow | 4d>15mm germination [3]: low
O=C1C=CCOC1(O)CO (stereo not drawn) [microthecin] |  |  |  |  |  |  |  | comparable with pellets only containing Thiram | MIC [4]: 2400 µg/mL (≈ 16.7 mM); MIC [5]: 480 µg/mL (≈ 3.33 mM); MIC [6]: 1200 µg/mL (≈ 8.33 mM); MIC [7]: 240 µg/mL (≈ 1.67 mM); final germination [2]: high final germination; growth of Aphanomyces [8]: able to reduce the growth; effect on the growth [9]: no effect; effect on the growth [10]: no effect; effect on Cercospora [11]: no effect; effect on growth [12]: slightly affected; effect on growth [13]: slightly affected; speed of laboratory germination (4d) ([3]; inclusion in the pellet): decreases the speed of laboratory germination
